This note sets out measurements from US20260042759A1, “INHIBITOR CONTAINING BICYCLIC DERIVATIVE, PREPARATION METHOD THEREFOR AND USE THEREOF” (SHANGHAI HANSOH BIOMEDICAL CO., LTD., priority 2019, published 2026).

For orientation: IC50 means the concentration at which inhibition is half-maximal.

In data set [1] the test system is phosphorylation of ERK, a downstream signal factor of TT cells. The data set can be described thus: ERK phosphorylation in TT cells (Western Blot). It counts as cell-based, human. On the procedure:
In this experiment, the inhibitory effect of compounds on the phosphorylation level of ERK, a downstream signaling factor in TT cells, was measured by Western Blot method. When TT cells were cultured to the appropriate fusion degree, the cells were collected and adjusted to a suitable cell concentration using complete medium, the cell suspension was spread in a 24-well plate, 1 mL per well, and placed in a 37° C., 5% CO2 incubator overnight, and compound dilutions of different concentrations (3.7 nM, 11.1 nM, 33.3 nM, 100 nM, 300 nM) were added at 37° C. and acted for 2 hours; the cell supernatant was aspirated, washed one time with PBS, and the proteins were collected with lysate; after protein denaturation, Western blot experiments were performed: performing protein electrophoresis at 120V for approximately 75 minutes, followed by 45 minutes of transfer to PVDF membranes at 10V with a semi-dry transfer instrument, enclosing at 5% BSA for 1 hour at room temperature, and then PVDF membranes were cut into strips of appropriate size and incubated with prepared antibody dilutions overnight at 4° C. and washed 6 times with TBST, followed by imaging with goat anti-mouse secondary antibody and sheep anti-rabbit secondary antibody for 1 hour at room temperature, and the membrane was washed 6 times with TBST for imaging in the Biorad ChemiDoc™ MP Imaging System.
The inhibitory effect of compounds on ERK phosphorylation levels in TT cells at different concentrations was determined by detecting protein bands.

Another data set has as its system TT xenograft tumor. The data set can be described thus: Subcutaneous xenograft tumor model of human thyroid cancer cell TT. The following applies: for Tumor inhibition rate TGI d 22 / Tumor volume (mm^3, mean ± SEM) d 22: oral BID 21 days; for Tumor volume (mm^3, mean ± SEM) d 0: oral BID. Type of data set: in vivo, BALB/c nude mice. How it is done: TT cells were cultured in vitro in a monolayer under the following conditions: F-12K medium with 20% heat-inactivated fetal bovine serum and 1% penicillin-streptomycin double antibodies at 37° C. and 5% CO2. Trypsin-EDTA was used twice a week digestion for digestion treatment passaging. When cells were in an exponential growth period, cells were collected, counted and inoculated.
TT cells were collected when they were full in a logarithmic growth period, ensuring over 90% of vitality. 0.2 mL cell suspension containing about 1×10^7 of TT cells (cells suspended in basic F-12K medium and added with 50% Matrigel) was subcutaneously inoculated into the right back tumor of each mouse […].
• 1. The day of grouping was day 0 (DO). The interval of BID administration was 6-8 h/18-16 h. The first dose was given in the afternoon of day DO and the last dose was given in the morning of day D21. • 2. Dosing volume: […] according to the body weight of nude mice.
Animal grouping: Before administration, the animals were weighed and the tumor volume was measured. The mice were randomly grouped according to tumor volume (randomized grouping design) with 5 animals per group.
Experimental index: The diameter of tumor was measured by vernier caliper twice a week. The tumor volume was calculated by the formula: V=a×b^2/2, a and b denote the long and short diameter of the tumor, respectively. The tumor suppressive efficacy of the compounds was evaluated by TGI (%). TGI (%)=(1−(TVTreatment/Dx−TVTreatment/D1)/(TVControl/Dx−TVControl/D1))×[…].
T test was used for comparison between two groups. One-way ANOVA was used for comparison among three or more groups. If there were significant differences in F values, multiple comparisons should be made after ANOVA analysis. GraphPadPrism 5.0 was used for all data analysis.
Background: A xenograft is tissue or cells of one species grown in another, often human tumour cells in immunodeficient mice.

The next data set deals with T1, RET (Homo sapiens, UniProt P07949).
T1 construct: purchased Carna 08-159
The data set can be described thus: HTRF kinase assay, RET wild-type. Type of data set: biochemical. The settings on record: ATP at Km. The source says:
• RET enzyme was purchased from Carna Company, and the article number was 08-159; • RET M918T enzyme was purchased from Carna Company, and the article number was 08-508; • KIF5B-RET was purchased from SignalChem Company, the article number was R02-19FG-05; • CCDC6-RET was purchased from SignalChem Company, the article number was R02-19BG-05; • RET V804M enzyme was purchased from Thermofisher Company, and the article number was PV6223; • RET V804L enzyme was purchased from Thermofisher Company, and the article number was PV4397; • HTRF KinEASE-TK kit was purchased from Cisbio Company, and the article number was 62TK0PEC; • ATP was purchased from Thermofisher Company, and the article number was PV3227; • 384-well plate was purchased from PerkinElmer Company, and the article number was 6007290.
In this experiment, the homogeneous time-resolved fluorescence (HTRF) method was used for the detection of compounds on RET kinase activity.
On the technique in general: TR-FRET usually uses a lanthanide donor and a delayed reading to cut background.

In another data set the target is T2, KDR kinase (Homo sapiens, UniProt P35968).
T2 construct: purchased Carna 08-191
Put plainly: HTRF kinase assay, KDR. It counts as biochemical. The settings on record: for IC50: HTRF, ATP at Km; for Ratio (KDR/RET): KDR IC50 / RET IC50. The source says: • KDR kinase was purchased from Carna Company, and the article number was 08-191; • HTRF KinEASE-TK kit was purchased from Cisbio Company, and the article number was 62TK0PEC; • ATP was purchased from Thermofisher Company, and the article number was PV3227; • 384-well plate was purchased from PerkinElmer Company, and the article number was 6007290.
In this experiment, the homogeneous time-resolved fluorescence (HTRF) method was used for the detection of compounds on KDR kinase activity.

For data set [2], the system named is TT cells (MTC, RET C634W). Put plainly: TT cell proliferation (CellTiter-Glo). It counts as cell-based, human. On the procedure:
When TT cells were cultured to the appropriate fusion level, TT cells were collected, and the cells were adjusted to the appropriate cell concentration using complete medium, and the cell suspension was spread in a 96-well plate, 90 µL per well, and placed in a 37° C., 5% CO2 incubator overnight; and compound solutions of different concentrations were prepared using DMSO and culture medium; and a solvent control was set, the compound solution was added to a 96-well plate, 10 µL per well, at 37° C. in a 5% CO2 incubator for 72 hours; CellTiter-Glo solution was added thereto and the mixture was mixed well by shaking, incubated for 10 min in the dark, and read by BioTek Synergy H1 microplate reader.
The luminescence signal values were used to calculate the inhibition rate, the concentration and the inhibition rate were fitted to a nonlinear regression curve using Graphpad Prism software.
(In general: ATP-based viability assays read luminescence as a measure of living cells.)

The nature of data set [3]: Balb/C mouse pharmacokinetics, oral. It counts as in vivo. The settings on record: Balb/C mice, p.o., 5 mg/kg, plasma. On the procedure:
The pharmacokinetic behavior of the following compound embodiments, administered orally at a dose of 5 mg/kg in plasma in mice, was studied using Balb/C mice as test animals.
Balb/C Mouse 6/embodiment, male, Shanghai Jiesijie Laboratory Animal Co., Ltd, Animal Production License No. (SCXK (Shanghai) 2013-0006 N0.311620400001794).
Balb/C mice, males; p.o. after overnight fasting, respectively, at a dose of 5 mg/kg, administered in a volume of 10 mL/kg.
0.5% CMC-Na(1% Tween80) was dissolved by ultrasound, and prepared into clear solution or uniform suspension.
Before and after administration, 0.1 mL of blood was collected from mice at 0, 0.5, 1, 2, 4, 6, 8 and 24 hours by orbital collection, placed in EDTA-K2 tubes, centrifuged at 6000 rpm at 4° C. for 6 min to separate plasma, and stored at −80° C.
40 μL of plasma sample was precipitated by adding 160 μL of acetonitrile, mixed and centrifuged at 3500×g for 5-20 min.
100 μL of the supernatant solution after treatment was taken to analyze the concentration of the test compound by LC/MS/MS.
The main pharmacokinetic parameters were calculated using WinNonlin 6.1 and the results of the mouse pharmacokinetic experiments were shown in Table 8 below.

T2 sequence (P35968 20-1356): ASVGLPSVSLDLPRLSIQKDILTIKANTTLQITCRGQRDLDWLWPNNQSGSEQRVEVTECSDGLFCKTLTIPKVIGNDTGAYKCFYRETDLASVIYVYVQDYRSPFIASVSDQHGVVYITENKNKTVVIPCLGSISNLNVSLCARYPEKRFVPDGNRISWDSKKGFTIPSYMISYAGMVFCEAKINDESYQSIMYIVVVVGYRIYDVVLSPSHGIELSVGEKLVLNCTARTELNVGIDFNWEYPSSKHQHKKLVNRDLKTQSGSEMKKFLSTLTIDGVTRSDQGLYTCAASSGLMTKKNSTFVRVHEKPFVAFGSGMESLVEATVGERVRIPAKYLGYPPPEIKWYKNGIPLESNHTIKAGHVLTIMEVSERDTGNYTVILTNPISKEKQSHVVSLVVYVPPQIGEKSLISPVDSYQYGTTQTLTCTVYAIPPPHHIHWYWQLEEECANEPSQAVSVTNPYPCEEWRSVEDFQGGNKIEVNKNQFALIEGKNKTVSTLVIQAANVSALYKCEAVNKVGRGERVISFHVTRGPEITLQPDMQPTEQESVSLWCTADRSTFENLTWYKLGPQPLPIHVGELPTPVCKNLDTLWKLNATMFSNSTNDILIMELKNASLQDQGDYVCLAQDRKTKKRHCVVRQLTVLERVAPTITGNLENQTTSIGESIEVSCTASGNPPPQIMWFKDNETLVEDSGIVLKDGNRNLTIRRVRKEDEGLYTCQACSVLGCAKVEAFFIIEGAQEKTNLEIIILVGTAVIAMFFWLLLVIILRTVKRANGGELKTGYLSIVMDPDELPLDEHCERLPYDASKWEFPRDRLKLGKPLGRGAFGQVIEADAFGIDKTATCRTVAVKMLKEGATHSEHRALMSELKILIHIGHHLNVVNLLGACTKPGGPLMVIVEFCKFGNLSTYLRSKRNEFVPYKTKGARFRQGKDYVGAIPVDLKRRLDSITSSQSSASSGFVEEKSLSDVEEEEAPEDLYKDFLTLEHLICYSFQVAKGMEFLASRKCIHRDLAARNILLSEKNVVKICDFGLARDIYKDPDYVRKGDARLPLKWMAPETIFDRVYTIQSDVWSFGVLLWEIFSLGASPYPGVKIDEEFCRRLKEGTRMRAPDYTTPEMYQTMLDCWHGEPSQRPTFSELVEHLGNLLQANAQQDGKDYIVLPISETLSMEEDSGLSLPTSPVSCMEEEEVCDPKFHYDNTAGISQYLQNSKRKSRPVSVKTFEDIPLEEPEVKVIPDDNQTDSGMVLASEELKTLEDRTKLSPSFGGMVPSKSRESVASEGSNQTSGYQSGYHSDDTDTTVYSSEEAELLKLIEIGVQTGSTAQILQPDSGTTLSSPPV
T1 sequence (P07949 29-1114): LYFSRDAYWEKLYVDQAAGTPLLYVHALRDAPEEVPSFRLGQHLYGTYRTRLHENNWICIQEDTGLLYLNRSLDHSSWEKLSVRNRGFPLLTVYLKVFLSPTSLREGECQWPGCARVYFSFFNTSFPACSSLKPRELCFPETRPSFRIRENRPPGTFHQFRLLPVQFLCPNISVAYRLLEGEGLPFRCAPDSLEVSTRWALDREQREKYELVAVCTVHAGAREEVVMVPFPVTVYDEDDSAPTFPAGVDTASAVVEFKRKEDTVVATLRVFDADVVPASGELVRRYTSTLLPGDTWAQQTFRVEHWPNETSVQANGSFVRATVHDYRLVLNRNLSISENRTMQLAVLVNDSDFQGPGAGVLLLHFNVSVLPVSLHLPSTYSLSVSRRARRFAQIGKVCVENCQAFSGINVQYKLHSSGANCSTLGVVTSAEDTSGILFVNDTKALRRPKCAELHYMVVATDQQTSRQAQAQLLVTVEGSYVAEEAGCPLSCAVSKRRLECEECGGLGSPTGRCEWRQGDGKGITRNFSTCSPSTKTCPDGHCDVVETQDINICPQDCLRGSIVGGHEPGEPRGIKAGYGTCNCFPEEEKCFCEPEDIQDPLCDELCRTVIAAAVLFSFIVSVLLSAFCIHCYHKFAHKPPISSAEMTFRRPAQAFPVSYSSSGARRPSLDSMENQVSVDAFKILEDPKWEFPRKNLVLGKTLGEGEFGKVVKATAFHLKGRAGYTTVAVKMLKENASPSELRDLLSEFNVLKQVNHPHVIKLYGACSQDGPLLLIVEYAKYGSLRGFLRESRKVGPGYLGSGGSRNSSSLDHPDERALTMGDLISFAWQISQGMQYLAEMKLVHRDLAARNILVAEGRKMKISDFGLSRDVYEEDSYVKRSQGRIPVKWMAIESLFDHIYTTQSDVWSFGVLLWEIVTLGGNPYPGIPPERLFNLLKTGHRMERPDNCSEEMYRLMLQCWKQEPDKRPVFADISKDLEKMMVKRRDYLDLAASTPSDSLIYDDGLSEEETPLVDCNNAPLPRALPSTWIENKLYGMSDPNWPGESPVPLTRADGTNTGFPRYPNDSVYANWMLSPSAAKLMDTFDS

Regarding `C#C[C@](C)(O)COc1cc(-c2ccc(N3CC4CC(C3)N4Cc3ccc(OC)nc3)nc2)c2c(C#N)cnn2c1` [Embodiment 153, 6-(((S)-2-hydroxy-2-methylbut-3-yn-1-yl)oxy)-4-(6-(6-((6-methoxypyridin-3-yl)methyl)-3,6-diazabicyclo[3.1.1]heptan-3-yl)pyridin-3-yl)pyrazolo[1,5-a]pyridine-3-carbonitrile], in data set [1] (11.1 nM, 2 hours at 37° C., TT cells), the “inhibition of ERK phosphorylation” value is recorded as “inhibit half of the ERK phosphorylation level”. The “inhibition of the phosphorylation level of ERK in TT cells, overall” value in data set [1] (3.7-300 nM, 2 hours) was “significantly inhibit”.

Take `COc1ccc(CN2C3CC2CN(c2ccc(-c4cc(N5CC(C)(C#N)C5)cn5ncc(C#N)c45)cn2)C3)cn1` [Embodiment 168, 6-(3-Cyano-3-methylazetidin-1-yl)-4-(6-(6-((6-methoxypyridin-3-yl)methyl)-3,6-diazabicyclo[3.1.1]heptan-3-yl)pyridin-3-yl)pyrazolo[1,5-a]pyridine-3-carbonitrile]: in the data set on TT xenograft tumor (10 mg/kg), the “Tumor inhibition rate TGI d 22” value is recorded as 129.77%; the “Tumor volume (mm^3, mean ± SEM) d 22” value amounted to 144.14 ± 8.95 mm^3; the “Tumor volume (mm^3, mean ± SEM) d 0” value is 205.23 ± 16.57 mm^3.

As to `COc1ncc(CN2C3CC2CN(c2ccc(-c4cc(C#CC(C)(C)O)cn5ncc(C#N)c45)cn2)C3)cc1F` [Embodiment 94, 4-(6-(6-((5-Fluoro-6-methoxypyridin-3-yl)methyl)-3,6-diazabicyclo[3.1.1]heptan-3-yl)pyridin-3-yl)-6-(3-hydroxy-3-methylbut-1-yn-1-yl)pyrazolo[1,5-a]pyridine-3-carbonitrile], in the data set on TT xenograft tumor (30 mg/kg), the “Tumor inhibition rate TGI d 22” value was determined as 99.64%; the “Tumor volume (mm^3, mean ± SEM) d 22” value is 203.56 ± 31.74 mm^3; the “Tumor volume (mm^3, mean ± SEM) d 0” value was determined as 199.73 ± 24.07 mm^3.

At RET, “6-((1-Imino-1-hydroxy-1l6-thietan-3-yl)methoxy)-4-(6-(6-((6-methoxypyridin-3-yl)methyl)-3,6-diazabicyclo[3.1.1]heptan-3-yl)pyridin-3-yl)pyrazolo[1,5-a]pyridine-3-carbonitrile [Embodiment 85]” returned an IC50 of 1.3 nM. At KDR kinase, the midpoint of inhibition, the IC50, lay at 69 nM and the “Ratio (KDR/RET)” value amounted to 55.

For the compound `COc1ccc(CN2C3CC2CN(c2ccc(-c4cc(/C=C/C(C)(C)O)cn5ncc(C#N)c45)cn2)C3)cn1` [Embodiment 127], the IC50 against RET is 0.26 nM; at KDR kinase it was 6.5 nM; in data set [2] (Homo sapiens, TT, 72 h), 5.87 nM. Besides, on KDR kinase, the “Ratio (KDR/RET)” value stood at 25.

Turning to `Cc1ccc(F)cc1C(=O)NC1(C)CC2CN(c3ccc(-c4cc(OCC(C)(C)O)cn5ncc(C#N)c45)cn3)CC2C1` (centres unmarked) [Embodiment 75, N-(2-(5-(3-cyano-6-(2-hydroxy-2-methylpropoxy)pyrazolo[1,5-a]pyridin-4-yl)pyridin-2-yl)-5-methyloctahydrocyclopenta[c]pyrrol-5-yl)-5-fluoro-2-methylbenzamide], the IC50 was 3.6 nM on RET and 124 nM on KDR kinase. For the same compound, the “Ratio (KDR/RET)” value at KDR kinase came out at 35.

As for `COc1ccc(CN2C3CC2CN(c2ccc(-c4cc(OCC56CC(C#N)(C5)C6)cn5ncc(C#N)c45)cn2)C3)cn1` [Embodiment 138, 6-((3-Cyanobicyclo[1.1.1]pentan-1-yl)methoxy)-4-(6-(6-((6-methoxypyridin-3-yl)methyl)-3,6-diazabicyclo[3.1.1]heptan-3-yl)pyridin-3-yl)pyrazolo[1,5-a]pyridine-3-carbonitrile], the IC50 in data set [2] (72 hours) was found to be 25.1 nM.

As to `COc1ccc(CN2C3CC2CN(c2ccc(-c4cc(OCC(C)(C)C#N)cn5ncc(C#N)c45)cn2)C3)cn1` [Embodiment 34, 6-(2-Cyano-2-methylpropoxy)-4-(6-(6-((6-methoxypyridin-3-yl)methyl)-3,6-diazabicyclo[3.1.1]heptan-3-yl)pyridin-3-yl)pyrazolo[1,5-a]pyridine-3-carbonitrile], the “Half-life t1/2” value in data set [3] is reported as 4.2 h.

Turning to `COc1ccc(OC2CCN(c3ccc(-c4cc(C#CC(C)(C)O)cn5ncc(C#N)c45)cn3)CC2)cn1` [Embodiment 32, 6-(3-Hydroxy-3-methylbut-1-yn-1-yl)-4-(6-(4-((6-methoxypyridin-3-yl)oxo)piperidin-1-yl)pyridin-3-yl)pyrazolo[1,5-a]pyridine-3-carbonitrile], at RET, the IC50 amounted to 1.22 nM. Besides, on KDR kinase, the IC50 came to 1.6 nM and the “Ratio (KDR/RET)” value was 1.3.

`CC(C)(O)COc1cc(-c2ccc(N3CCC(N)(C(=O)N4CCc5ccccc54)CC3)nc2)c2c(C#N)cnn2c1` [Embodiment 62, 4-(6-(4-Amino-4-(indoline-1-carbonyl)piperidin-1-yl)pyridin-3-yl)-6-(2-hydroxy-2-methylpropoxy)pyrazolo[1,5-a]pyridine-3-carbonitrile] had an IC50 on RET of 1.3 nM. At KDR kinase, the IC50 was found to be 17 nM and the “Ratio (KDR/RET)” value is 14.
